According to PMC12111648, “New Dimethoxyaryl-Sesquiterpene Derivatives with Cytotoxic Activity Against MCF-7 Breast Cancer Cells: From Synthesis to Topoisomerase I/II Inhibition and Cell Death Mechanism Studies” (International Journal of Molecular Sciences, 2025):
“Also recorded” adds a separate entry of the source.

Assays:
[1] = system: human topoisomerase II; assay: TOP2 DNA relaxation / plasmid linearization assay; format: biochemical; conditions: 20 μM
Description: The ability to relax DNA conformations is a central function of topoisomerase enzymes. Several studies have associated some proapoptotic compounds with the ability to inhibit topoisomerase enzymes. The ability of the selected compounds to inhibit TOP1 or TOP2 activity was determined. In this experiment, daunorubicin was used as a positive control for TOP1/2 inhibition, as previously reported. […] It is important to note the potential for cardiotoxicity associated with some TOP2 inhibitors, which highlights the relevance of assessing compound 14c’s interaction with TOP2B. […] Future studies should include assays to evaluate the specific activity of 14c against both TOP2A and TOP2B to provide a more comprehensive safety profile, as isoform-selective TOP2 inhibitors may offer a therapeutic advantage by reducing adverse effects.
Topoisomerase II-mediated DNA cleavage was assessed using a plasmid linearization assay adapted from previously described methods. Supercoiled plasmid DNA (200 ng final concentration) was incubated with purified human topoisomerase II (10 U) in the presence or absence of test agents or a positive control. Reactions were carried out in a total volume of 20 μL, composed of 2 μL of 10× topoisomerase II reaction buffer, an appropriate volume of compound or control, and nuclease-free water. ATP (final concentration adjusted from a 20 mM stock) was freshly added to the reaction buffer immediately prior to use. Reactions were initiated by the addition of topoisomerase II and incubated at 37 °C for 30 min. To terminate the reactions, 2 μL of 10% SDS was added directly to the tubes while still in the 37 °C water bath, followed by the addition of 1.5 μL of 250 mM tetrasodium EDTA (pH 8.0) and 2 μL of proteinase K solution (0.8 mg/mL). […]
Figure 7 The effect of sesquiterpene aryl esters on TOP1- and TOP2-induced DNA relaxation was assessed. (A) The TOP1 inhibition assay evaluated the compounds (10c, 11c, 12c, 13c, and 14c) at a concentration of 20 μM in a DNA relaxation assay. […]

[2] = system: caspases-3/7 in MCF-7 cells; assay: Caspase-Glo 3/7 assay; format: cell-based, human; conditions: MCF-7, 50 μM, 24 h, versus control
Description: Since ROS levels were increased in the MCF-7 cancer cell line in response to the compounds, it is important to determine whether this effect is associated with the onset of apoptotic cell death. […] Cells were treated with the selected compounds at 50 μM for 24 h, incubated in situ with the Caspase-Glo 3/7 marker assay, and then analyzed in a luminometer.
The activity of caspase 3/7 in MCF-7 cells treated with the compounds was determined using a Caspase-Glo-3/7 Assay kit from Promega (UK). This assay is a homogenous and luminescent method that measures the activity of caspase-3 and -7, which are essential for apoptosis. MCF-7 cells (1 × 10^4 cells per well) were seeded in a 96-well plate and incubated overnight. The cells were then treated for 24 h with the compounds (50 µM) and a blank as a control. After treatment, the Caspase-Glo® 3/7 reagent was prepared according to the manufacturer’s instructions. Specifically, 100 μL of the reagent was added to 100 μL of culture medium containing the treated cells in each well, and the mixture was incubated for 1 h at room temperature in the dark. Luminescence was then measured using a luminometer (Berthold Sirius Single Tube Luminometer). The fold change in caspase activity was calculated by expressing the average luminescence of each treatment as a fold change with respect to the average luminescence of the negative control.
Figure 6 The effect of the compounds on caspases-3/7 activity in cells from the human breast cancer cell line MCF-7. Caspases-3/7 activity was determined in MCF-7 cells following treatment with the compounds (50 μM) for 24 h. The data are reported as the ratio of activity in treated cells vs. the control (1% ethanol), which were arbitrarily assigned a unitary value. * p < 0.05 versus control cells (Ctrl). The data are reported as the mean values ± S.D. of three different experiments with samples in triplicate.

Row | Compound | inhibition of TOP2-induced DNA relaxation [1] | caspases-3/7 activity [2]
1 | COc1ccc(/C=C2\C(C)=CCC3C(C)(C)CCC[C@]23C)cc1OC (stereo partly drawn) [Compound 13c, (4aS)-5-((E)-3,4-Dimethoxybenzylidene)-1,1,4a,6-tetramethyl-1,2,3,4,4a,5,8,8a-octahydronaphthalene] | no inhibition | considerably enhanced
2 | COc1cc2c(cc1OC)[C@]1(C)CCC3C(C)(C)CCC[C@]3(C)C1=C2 (stereo partly drawn) [Compound 14c, (6aR,11bS)-8,9-Dimethoxy-4,4,6a,11b-tetramethyl-2,3,4,4a,5,6,6a,11b-octahydro-1H-benzo[a]fluorene] | selectively inhibited topoisomerase II; also recorded: modified the TOP2-induced DNA relaxation pattern | activated caspases-3/7; also recorded: considerably enhanced
